{"source": "patent US5616563A", "about": "“Glutathione N-hydroxycarbamoyl thioesters and method of inhibiting neoplastic growth” (University of Maryland Baltimore Campus, priority 1994, dated 1997)", "key": {"human erythrocyte Glx I": {"biological_target": "T1, human erythrocyte Glx I (Homo sapiens, UniProt Q04760)", "T1 construct": "Human erythrocyte Glx I was purified to homogeneity from out-dated human blood; from tissue; host or cells: human erythrocytes (out-dated human blood)", "T1 sequence (Q04760 2-184 limits assumed)": "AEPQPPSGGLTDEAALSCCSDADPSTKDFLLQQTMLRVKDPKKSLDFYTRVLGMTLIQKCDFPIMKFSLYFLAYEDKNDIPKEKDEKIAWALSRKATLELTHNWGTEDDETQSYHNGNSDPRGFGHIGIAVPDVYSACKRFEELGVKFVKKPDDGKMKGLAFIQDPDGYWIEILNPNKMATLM", "assay": "Inhibition of human erythrocyte glyoxalase I", "type": "biochemical"}, "[1]": {"system": "Human Leukemia 60 (HL60) cells", "assay": "Growth inhibition and kill of human leukemia 60 cells", "type": "cell-based", "description": "The observation that compounds 2 and 6(c) inhibit tumor cell growth, but were not strongly cytotoxic to tumor cells at the concentrations tested, prompted the synthesis of diethyl esters of compounds 6(a), 6(b), and 6(c). These derivatives were then tested with human leukemia cells (HL60 cells) grown in RPMI/fetal calf serum medium at 37° C.\n^c Concentration for 50% cell kill."}, "[2]": {"system": "normal human VA-2 fibroblasts", "assay": "Toxicity to normal human fibroblasts", "type": "cell-based"}, "[3]": {"biological_target": "bovine liver glyoxalase II (Bos taurus, UniProt Q3B7M2)", "assay": "Substrate and inhibition studies with bovine liver glyoxalase II", "protocol": "(§1) The standard errors for Vm and Km were obtained by analysis of the initial rate data using the HYPER program of Cleland.\n(§2) ^a HEPES buffer (100 mM, pH 7.4), 25° C.\n(§3) ^b Listed values are relative to Vm for SD-lactoylglutathione.\n(§4) ^c Inhibition constants obtained from using the enediol analogs as"}, "yeast Glx I [4]": {"biological_target": "T2, yeast Glx I (Saccharomyces cerevisiae, UniProt P50107)", "T2 construct": "purchased Sigma Chem. Co", "T2 sequence (P50107 1-326)": "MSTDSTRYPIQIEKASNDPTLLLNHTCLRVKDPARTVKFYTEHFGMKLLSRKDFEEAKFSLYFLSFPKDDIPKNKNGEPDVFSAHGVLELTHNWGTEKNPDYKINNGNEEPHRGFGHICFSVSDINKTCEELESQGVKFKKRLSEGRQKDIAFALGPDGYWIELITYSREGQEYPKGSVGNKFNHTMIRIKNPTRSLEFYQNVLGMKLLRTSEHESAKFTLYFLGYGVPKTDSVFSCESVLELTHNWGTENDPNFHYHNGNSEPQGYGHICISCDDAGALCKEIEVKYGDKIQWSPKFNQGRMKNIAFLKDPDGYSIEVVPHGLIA", "assay": "Inhibition of yeast glyoxalase I", "type": "biochemical"}, "Renal Cancer (ACHN)": {"system": "Renal Cancer (ACHN)", "assay": "NCI tumor cell growth inhibition, renal cancer ACHN", "quoted_text": "(§5) ^a Concentration for 50% cell growth inhibition versus nodrug\n(§6) ^b Concentration for total cell growth inhibition versus nodrug"}, "KB cells": {"system": "KB cells", "settings": "concentration for 50% kill of the cell culture; cited from earlier work"}, "L1210 leukemia": {"system": "L1210 leukemia", "settings": "concentration for 50% kill of the cell culture; cited from earlier work"}, "Colon Cancer (KMZOLZ)": {"system": "Colon Cancer (KMZOLZ)", "assay": "NCI tumor cell growth inhibition, colon cancer KMZOLZ", "quoted_text": "as §5, §6"}, "[5]": {"system": "Non-Small Cell Lung Cancer (HOP-18)", "assay": "NCI tumor cell growth inhibition, non-small cell lung cancer HOP-18", "quoted_text": "as §5, §6"}, "yeast Glx I [6]": {"biological_target": "T2, yeast Glx I", "settings": "Hamilton et al. 1992; cited from earlier work"}, "Ovarian Cancer (SK-OV-3)": {"system": "Ovarian Cancer (SK-OV-3)", "assay": "NCI tumor cell growth inhibition, ovarian cancer SK-OV-3", "quoted_text": "as §5, §6"}, "[7]": {"settings": "of substituent R; cited from earlier work"}, "glyoxalase I": {"biological_target": "T3, glyoxalase I (Saccharomyces cerevisiae, UniProt P50107)", "T3 sequence (P50107 1-326)": "T2 sequence (P50107 1-326)", "settings": "concentration of 50% inhibition of glyoxalase I; c = No inhibitory activity was detected; read-out: I50; cited from earlier work"}, "Melanoma (UACC-62)": {"system": "Melanoma (UACC-62)", "assay": "NCI tumor cell growth inhibition, melanoma UACC-62", "quoted_text": "as §5, §6"}, "CNS Cancer (SNB-75)": {"system": "CNS Cancer (SNB-75)", "assay": "NCI tumor cell growth inhibition, CNS cancer SNB-75", "quoted_text": "as §5, §6"}, "[8]": {"system": "CN(O)C(=O)SC[C@H](NC(=O)CC[C@H](N)C(=O)O)C(=O)NCC(=O)O", "assay": "purified protein, by the assay type", "settings": "other: as substrate, HEPES buffer (100 mM, pH 7.4), 25° C.", "protocol": "as §1, §2, §3, §4"}, "[9]": {"settings": "Homo sapiens, 48 h, read-out: GI (concentration for 50% cell growth inhibition)"}, "[10]": {"settings": "Homo sapiens, SK-OV-3, read-out: inhibition of cell growth"}}, "note": "Like-named read-outs stand apart in the source and are kept apart here."}
{"compound": "CCOC(=O)CNC(=O)[C@H](CSC(=O)N(O)c1ccccc1)NC(=O)CC[C@H](N)C(=O)OCC", "note": "[6a(Et)2]", "values": [{"measurement": "Ki", "setting": "human erythrocyte Glx I; Table 7, read-out: Ki (competitive inhibition constants with human erythrocyte glyoxalase I)", "value": "> 1000", "unit": "µM"}, {"measurement": "cell killing", "setting": "[1]; HL60, 250 to 300 μM", "value": "about 100%"}, {"measurement": "LC50 (concentration for 50% cell kill)", "setting": "[1]; HL60, 72 hr. incubation", "value": 200, "unit": "µM"}, {"measurement": "TGI (concentration for total cell growth inhibition)", "setting": "[1]; HL60, 72 hr. incubation", "value": 126, "unit": "µM"}, {"measurement": "IC50", "setting": "[1]; HL60, 72 hr. incubation, read-out: GI (concentration for 50% cell growth inhibition)", "value": 63, "unit": "µM"}, {"measurement": "toxicity versus corresponding unethylated species", "setting": "[1]; HL60 cells, RPMI/fetal calf serum medium, 37° C.", "value": "more toxic"}, {"measurement": "inhibition of cell growth", "setting": "[2]; VA-2 fibroblasts, 250 to 300 μM", "value": "50-80%"}]}
{"compound": "CN(O)C(=O)SC[C@H](NC(=O)CC[C@H](N)C(=O)O)C(=O)NCC(=O)O", "note": "[Compound 2, S-(N-Hydroxy N-Methyl Carbamoyl) Glutathione]", "values": [{"measurement": "Ki", "setting": "human erythrocyte Glx I; Phosphate buffer (50 mM, pH 7), 25° C., read-out: Ki Erythrocytes", "value": "1.95 ± 0.21", "unit": "µM"}, {"measurement": "Ki", "setting": "[3]", "value": "426 ± 77", "unit": "µM"}, {"measurement": "Vm (rel.)", "setting": "[3]; relative to Vm for S-D-lactoylglutathione, HEPES buffer (100 mM, pH 7.4), 25° C.", "value": "(1.7 ± 0.1) × 10^-5"}, {"measurement": "binding energy difference versus deoxy analog 2(a)", "setting": "yeast Glx I [4]", "value": "about 2.6 Kcal/mole"}, {"measurement": "binds more tightly to active site of Glx I than deoxy analog 2(a)", "setting": "yeast Glx I [4]", "value": 80, "unit": "fold"}, {"measurement": "binds more tightly to yeast Glx I than S-D-lactoylglutathione", "setting": "yeast Glx I [4]", "value": "over 30 fold"}, {"measurement": "Ki", "setting": "yeast Glx I [4]; read-out: Ki yeast Glx I", "value": 68, "unit": "µM"}, {"measurement": "LC50 (concentration for 50% cell kill)", "setting": "Renal Cancer (ACHN); 48 hrs. incubation", "value": "> 1000", "unit": "µM"}, {"measurement": "TGI (concentration for total cell growth inhibition)", "setting": "Renal Cancer (ACHN); 48 hrs. incubation", "value": "> 1000", "unit": "µM"}, {"measurement": "IC50", "setting": "Renal Cancer (ACHN); [9]", "value": "> 1000", "unit": "µM"}, {"measurement": "inhibition at 1000 µM", "setting": "Renal Cancer (ACHN); Homo sapiens, read-out: inhibition of cell growth", "value": "~40", "unit": "%"}, {"measurement": "effect on cell growth", "setting": "Renal Cancer (ACHN); concentrations lower than 10^-3 M", "value": "no significant effect"}, {"measurement": "LD50 (KB)", "setting": "KB cells", "value": 0.11, "unit": "mM"}, {"measurement": "LD50 (L1210)", "setting": "L1210 leukemia", "value": "> 0.20", "unit": "mM"}, {"measurement": "IC50", "setting": "Colon Cancer (KMZOLZ); [9]", "value": "> 1000", "unit": "µM"}, {"measurement": "inhibition of cell growth", "setting": "Colon Cancer (KMZOLZ); KMZOL2, \"At this concentration\" (printed after 10^-4 and below)", "value": "< 30", "unit": "%"}, {"measurement": "effect on cell growth", "setting": "Colon Cancer (KMZOLZ); KMZOL2, concentrations of 10^-4 and below", "value": "no significant effect"}, {"measurement": "LC50 (concentration for 50% cell kill)", "setting": "Colon Cancer (KMZOLZ); KMZOLZ, 48 hrs. incubation", "value": "> 1000", "unit": "µM"}, {"measurement": "TGI (concentration for total cell growth inhibition)", "setting": "Colon Cancer (KMZOLZ); KMZOLZ, 48 hrs. incubation", "value": "> 1000", "unit": "µM"}, {"measurement": "LC50 (concentration for 50% cell kill)", "setting": "[5]; HOP-18, 48 hrs. incubation", "value": "> 1000", "unit": "µM"}, {"measurement": "TGI (concentration for total cell growth inhibition)", "setting": "[5]; HOP-18, 48 hrs. incubation", "value": "> 1000", "unit": "µM"}, {"measurement": "IC50", "setting": "[5]; Homo sapiens, HOP-18, 48 h, read-out: GI (concentration for 50% cell growth inhibition)", "value": 630, "unit": "µM"}, {"measurement": "inhibition at 1000 µM", "setting": "[5]; Homo sapiens, HOP-18, read-out: cell growth inhibition", "value": "> 65", "unit": "%"}, {"measurement": "higher affinity of the enzyme versus glycyl-ethyl ester 2(Et)", "setting": "yeast Glx I [6]", "value": 10, "unit": "fold"}, {"measurement": "IC50", "setting": "Ovarian Cancer (SK-OV-3); Homo sapiens, SK-OV-3, 48 h, read-out: GI (concentration for 50% cell growth inhibition)", "value": 316, "unit": "µM"}, {"measurement": "inhibition at 100 µM", "setting": "Ovarian Cancer (SK-OV-3); [10]", "value": 20, "unit": "%"}, {"measurement": "inhibition at 1000 µM", "setting": "Ovarian Cancer (SK-OV-3); [10]", "value": "> 90", "unit": "%"}, {"measurement": "LC50 (concentration for 50% cell kill)", "setting": "Ovarian Cancer (SK-OV-3); SK-OV-3, 48 hrs. incubation", "value": "> 1000", "unit": "µM"}, {"measurement": "TGI (concentration for total cell growth inhibition)", "setting": "Ovarian Cancer (SK-OV-3); SK-OV-3, 48 hrs. incubation", "value": "~ 1000 μM"}, {"measurement": "π (Hansch hydrophobicity constant)", "setting": "[7]", "value": 0.5}, {"measurement": "IC50", "setting": "glyoxalase I", "value": 9, "unit": "µM"}, {"measurement": "IC50", "setting": "Melanoma (UACC-62); Homo sapiens, UACC-62, 48 h, read-out: GI (concentration for 50% cell growth inhibition)", "value": "> 1000", "unit": "µM"}, {"measurement": "inhibition at 1000 µM", "setting": "Melanoma (UACC-62); Homo sapiens, UACC-62, read-out: inhibition of cell growth", "value": 30, "unit": "%"}, {"measurement": "effect on cell growth", "setting": "Melanoma (UACC-62); UACC-62, 10^-4 or lower", "value": "ineffective"}, {"measurement": "LC50 (concentration for 50% cell kill)", "setting": "Melanoma (UACC-62); UACC-62, 48 hrs. incubation", "value": "> 1000", "unit": "µM"}, {"measurement": "TGI (concentration for total cell growth inhibition)", "setting": "Melanoma (UACC-62); UACC-62, 48 hrs. incubation", "value": "> 1000", "unit": "µM"}, {"measurement": "inhibition of cell growth", "setting": "CNS Cancer (SNB-75); CNS human cancer cells, 10^-4 M or lower", "value": "less than 10%"}, {"measurement": "IC50", "setting": "CNS Cancer (SNB-75); Homo sapiens, SNB-75, 48 h, read-out: GI (concentration for 50% cell growth inhibition)", "value": 630, "unit": "µM"}, {"measurement": "inhibition at 1000 µM", "setting": "CNS Cancer (SNB-75); Homo sapiens, SNB-75, read-out: inhibition of cell growth", "value": 60, "unit": "%"}, {"measurement": "LC50 (concentration for 50% cell kill)", "setting": "CNS Cancer (SNB-75); SNB-75, 48 hrs. incubation", "value": "> 1000", "unit": "µM"}, {"measurement": "TGI (concentration for total cell growth inhibition)", "setting": "CNS Cancer (SNB-75); SNB-75, 48 hrs. incubation", "value": "> 1000", "unit": "µM"}]}
{"compound": "C[C@@H](O)C(=O)SC[C@H](NC(=O)CC[C@H](N)C(=O)O)C(=O)NCC(=O)O", "note": "[S-D-lactoylglutathione, reference compound]", "values": [{"measurement": "Ki", "setting": "yeast Glx I [4]", "value": 2230, "unit": "µM"}, {"measurement": "LD50 (KB)", "setting": "KB cells", "value": 0.07, "unit": "mM"}, {"measurement": "LD50 (L1210)", "setting": "L1210 leukemia", "value": 0.08, "unit": "mM"}, {"measurement": "IC50", "setting": "glyoxalase I", "value": 77, "unit": "µM"}]}
{"compound": "N[C@@H](CCC(=O)N[C@@H](CSCc1ccc(Br)cc1)C(=O)NCC(=O)O)C(=O)O", "note": "[S-p-Bromobenzyl glutathione, reference compound]", "values": [{"measurement": "LC50", "setting": "[1]; HL60 cells, text b533", "value": 50, "unit": "µM"}, {"measurement": "LC50", "setting": "[2]; fibroblasts, text b533", "value": 50, "unit": "µM"}]}
{"compound": "bovine liver glyoxalase II (Bos taurus)", "values": [{"measurement": "Km", "setting": "[8]", "value": 478, "unit": "µM"}]}
